# From patent EP0810221A1 (MITSUBISHI CHEMICAL CORPORATION, priority 1995, dated 1996)
# Columns and labels:
# [1] = test system: IgE; conditions: cited from earlier work
# [2] = test system: IgG; conditions: cited from earlier work
# [3] = rats, osteoclasia accentuated by parathormone; cited from earlier work
# [4] = molecular target: T1, cathepsin B (Sigma, C-6286) (Bos taurus, UniProt P07688); experiment: Inhibitory activity against cathepsin B; assay type: biochemical; conditions: Inhibitory activity against cathepsin B (Table-5)
# T1 construct: purchased Sigma C-6286
# Protocol: Inhibitory activity against cathepsin B (Sigma, C-6286) was determined according to a method described in a literature (Biochemical Journal, Vol. 201, p. 189, 1982).
# [5] = molecular target: T2, m-Calpain (Rattus norvegicus, UniProt Q07009); experiment: Inhibitory activity against calpain (m-Calpain purified from brains of rats); assay type: biochemical; conditions: Inhibitory activity against calpain (continuation of Table-6)
# T2 construct: m-Calpain was purified from brains of rats; from tissue; host or cells: rat brain
# T2 sequence (Q07009 20-700 limits assumed): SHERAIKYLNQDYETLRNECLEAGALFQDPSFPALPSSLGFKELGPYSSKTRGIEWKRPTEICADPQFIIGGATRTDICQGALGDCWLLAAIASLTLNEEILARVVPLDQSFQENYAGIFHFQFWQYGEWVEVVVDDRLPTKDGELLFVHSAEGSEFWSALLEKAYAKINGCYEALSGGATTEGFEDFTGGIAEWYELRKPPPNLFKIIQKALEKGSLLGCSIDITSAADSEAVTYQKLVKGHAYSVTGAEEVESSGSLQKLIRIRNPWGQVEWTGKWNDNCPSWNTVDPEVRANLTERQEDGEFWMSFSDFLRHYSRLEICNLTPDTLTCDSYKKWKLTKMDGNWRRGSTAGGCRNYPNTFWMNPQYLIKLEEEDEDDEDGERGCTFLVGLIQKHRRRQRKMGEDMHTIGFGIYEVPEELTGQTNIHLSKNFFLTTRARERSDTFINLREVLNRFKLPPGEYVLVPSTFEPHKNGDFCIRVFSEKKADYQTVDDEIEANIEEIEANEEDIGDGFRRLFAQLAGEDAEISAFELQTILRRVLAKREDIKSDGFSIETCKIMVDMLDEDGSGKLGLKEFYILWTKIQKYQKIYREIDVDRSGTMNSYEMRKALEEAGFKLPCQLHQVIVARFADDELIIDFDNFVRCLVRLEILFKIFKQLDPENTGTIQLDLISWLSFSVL
# T2 sequence (Q64537 1-270 partner): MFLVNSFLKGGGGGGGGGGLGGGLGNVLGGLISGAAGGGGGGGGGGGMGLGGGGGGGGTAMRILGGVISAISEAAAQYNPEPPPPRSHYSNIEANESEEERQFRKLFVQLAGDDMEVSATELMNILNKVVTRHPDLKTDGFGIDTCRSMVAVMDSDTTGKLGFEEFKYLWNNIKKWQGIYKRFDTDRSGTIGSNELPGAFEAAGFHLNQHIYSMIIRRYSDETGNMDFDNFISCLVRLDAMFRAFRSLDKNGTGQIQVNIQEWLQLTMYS
# Protocol: m-Calpain was purified from brains of rats according to a method described in a literature (Journal of Biological Chemistry, Vol. 259, p. 3210, 1984), and the inhibitory activity was determined in a manner according to a published method (Journal of Biological Chemistry, Vol. 259, p. 12489, 1984).
# [6] = Release of an active compound in blood: incubation in human serum, HPLC; assay type: in vitro ADME; conditions: same procedure
# [7] = Acute toxicity test, oral; conditions: both sexes, rat, in vivo, orally administered, suspended in 0.5% aqueous CMC-Na, SD male and female rats, observed for seven days
# Description: Compounds of the present invention was suspended in 0.5% aqueous solution of CMC-Na and the suspensions were orally administered to SD male and female rats.
# [8] = Release of an active compound in blood: incubation in rat serum, HPLC; assay type: in vitro ADME; conditions: final concentration 100 µ M, 37°C, 5 minutes
# Protocol: (2S,3S)-2-acetoxy-3-((S)-4-methyl-2-phenylsulfonylaminovalerylamino)tetrahydrofuran obtained in Example 88 was dissolved in acetonitrile and the solution was added to rat serum so that its final concentration was adjusted to 100 µ M. The mixture was incubated at 37°C for 5 minutes. The mixture was then added with acetonitrile and centrifuged, and the resulting solution portion was applied to HPLC for analysis. For comparison, solutions obtained by dissolving (3S)-3-((S)-4-methyl-2-phenylsulfonylaminovalerylamino)-2-tetrahydrofuranol obtained in Example 1 and (2S,3S)-2-acetoxy-3-((S)-4-methyl-2-phenylsulfonylaminovalerylamino)tetrahydrofuran obtained in Example 88 in acetonitrile respectively were examined by HPLC.
# The HPLC conditions were as follows: Column: Nucleosil 1005 C18, 4.6×250 mm (Nagel) Column temperature: 50°C Mobile phase: CH3CN:H2O:PIC A Low UV (Waters) = 22:78:1 Flow rate: 1 ml/min Detection wavelength: UV 222 nm
# [9] = Release of an active compound in blood: incubation in dog serum, HPLC; assay type: in vitro ADME; conditions: same procedure
# [10] = test system: experimental model of cataract; conditions: cited from earlier work
# [11] = test system: microtubule-binding proteins; conditions: after cerebral ischemia; cited from earlier work
# [12] = test system: blood platelets; conditions: cited from earlier work
# [13] = test system: muscular dystrophy hamsters; conditions: cited from earlier work
# [14] = test system: animal model of myocardial infarct; conditions: in vivo; cited from earlier work
# [15] = test system: axon; conditions: head injury model using a rat; cited from earlier work
compound,measurement,setting,value
NC(N)=NCCCCNC(=O)[C@H](Cc1ccccc1)NC(=O)[C@H]1O[C@@H]1C(=O)O [Estatin A],production of IgE,[1],specifically suppresses
same,production of IgG,[2],does not affect
same,hydroxyproline concentration,[3],lowered
same,serum calcium concentration,[3],lowered
"CC(C)C[C@H](NS(=O)(=O)c1cccnc1)C(=O)N[C@H]1CCOC1O (stereo partly drawn) [Example 77, (3S)-3-{(S)-4-methyl-2-(3-pyridylsulfonylamino)valerylamino}-2-tetrahydrofuranol]",IC50,[4],400 nM
same,IC50,[5],1000 nM
"CC(C)C[C@H](NC(=O)[C@H](CC(C)C)NS(=O)(=O)c1ccccc1)C(=O)N[C@H]1CCOC1O (stereo partly drawn) [Example 87, (3S)-3-{(S)-2-((S)-4-methyl-2-phenylsulfonylaminovalerylamino)-4-methylvalerylamino}-2-tetrahydrofuranol]",IC50,[4],1300 nM
same,IC50,[5],780 nM
"CC(=O)O[C@@H]1OCC[C@@H]1NC(=O)[C@H](CC(C)C)NS(=O)(=O)c1ccccc1 [Example 88, (2S,3S)-2-acetoxy-3-((S)-4-methyl-2-phenylsulfonylaminovalerylamino)tetrahydrofuran]",formation of active form,[6],formations of active form were also observed
same,LD50 at 7 days,[7],< 2000 mg/kg
same,hydrolyzed and converted into the active form,[8],97%
same,formation of active form,[9],formations of active form were also observed
"CC(=O)O[C@@H]1OCC[C@@H]1NC(=O)[C@H](CC(C)C)NC(=O)c1ccccc1F [Example 96, (2S,3S)-2-acetoxy-3-{(S)-2-(2-fluorobenzoylamino)-4-methylvalerylamino}tetrahydrofuran]",LD50 at 7 days,[7],< 2000 mg/kg
"CC(=O)O[C@@H]1OCC[C@@H]1NC(=O)[C@H](CC(C)C)NS(=O)(=O)c1ccc(C)cc1 [Example 106, (2S,3S)-2-acetoxy-3-{(S)-4-methyl-2-(4-methylphenylsulfonylamino)valerylamino}tetrahydrofuran]",LD50 at 7 days,[7],< 2000 mg/kg
"CC(C)C[C@H](NC(=O)[C@H]1O[C@@H]1C(=O)O)C(=O)NCCCCN=C(N)N [Example E-64, E-64]",hydroxyproline concentration,[3],lowered
same,serum calcium concentration,[3],lowered
same,efficacy in an experimental model of cataract,[10],effective
"CC(C)CCNC(=O)[C@H](CC(C)C)NC(=O)[C@H]1O[C@@H]1C(=O)O [Example E-64-c, E-64-c]",degradation of microtubule-binding proteins,[11],suppressed
"CCOC(=O)[C@H]1O[C@@H]1C(=O)N[C@@H](CC(C)C)C(=O)NCCC(C)C [Example E-64-d, E-64-d]",platelet aggregation caused by thrombin,[12],suppressed
same,life prolongation effect,[13],life prolongation effect
CCOC(=O)[C@@H]1O[C@H]1C(=O)NC(CC(C)C)C(=O)N1CCN(Cc2ccc(OC)c(OC)c2OC)CC1.CCOC(=O)[C@@H]1O[C@H]1C(=O)NC(CC(C)C)C(=O)N1CCN(Cc2ccc(OC)c(OC)c2OC)CC1.O=S(=O)(O)O (stereo partly shown) [NCO-700],efficacy in an animal model of myocardial infarct,[14],effective
CC(=O)N[C@@H](CC(C)C)C(=O)N[C@@H](CC(C)C)C(=O)N[C@H](C=O)CCCNC(=N)N [leupeptin],protective effect on axon,[15],protective effect on axon was observed
